The source of these data is ChEMBL document CHEMBL1158606, “Synthesis and molecular modeling studies of 3-chloro-4-substituted-1-(8-hydroxy-quinolin-5-yl)-azetidin-2-ones as novel anti-filarial agents” (2010).

Holding throughout (format): functional
The subject of assay [1] is Brugia malayi. Put plainly: Antifilarial activity against Brugia malayi assessed as loss of motility at 80 ng/ml after 48 hrs by MTT assay. A general note: Tetrazolium dyes change colour on reduction, which living cells bring about.
The test system of assay [2] is Brugia malayi. In words: Antifilarial activity against Brugia malayi assessed as loss of motility at 100 ng/ml after 48 hrs by MTT assay.
Assay [3] deals with Brugia malayi. Put plainly: Antifilarial activity against Brugia malayi assessed as loss of motility at 60 ng/ml after 48 hrs by MTT assay.
The subject of assay [4] is Brugia malayi. In words: Antifilarial activity against Brugia malayi assessed as loss of motility at 40 ng/ml after 48 hrs by MTT assay.
Assay [5] relates to Brugia malayi. Put plainly: Antifilarial activity against Brugia malayi assessed as loss of motility at 20 ng/ml after 48 hrs by MTT assay.

Calls of active or inactive are those of the source. The calls are words filed in the database; no cut-off is given here.

`O=C1C(Cl)C(c2ccccc2)N1c1ccc(O)c2ncccc12` (stereo not given): the Activity in the assay on Brugia malayi [1] and in the assay with Brugia malayi [2] was 2% each time. For the same compound, the result with Brugia malayi [3], in the assay on Brugia malayi [4] and in the assay with Brugia malayi [5] was inactive.
For the compound `CC1C(Cl)C(=O)N1c1ccc(O)c2ncccc12` (stereo not given), the Activity came to 76% in the assay with Brugia malayi [1]; 81% in the assay with Brugia malayi [2]; 67% with Brugia malayi [3]; 61% in the assay with Brugia malayi [4]; 53% in the assay with Brugia malayi [5].
`O=C1C(Cl)C(c2ccc(Br)cc2)N1c1ccc(O)c2ncccc12` (stereo not given): the Activity in the assay on Brugia malayi [1] is 16%; in the assay on Brugia malayi [2], 23%; in the assay with Brugia malayi [3], 3%. The result with Brugia malayi [4] and in the assay on Brugia malayi [5] was inactive.
Regarding `O=C1C(Cl)C(c2ccc(Cl)cc2)N1c1ccc(O)c2ncccc12` (stereo not given), the Activity stood at 36% in the assay on Brugia malayi [1], 59% with Brugia malayi [2], 19% in the assay with Brugia malayi [3] and 10% in the assay on Brugia malayi [4]. In addition, in the assay on Brugia malayi [5], the result was inactive.
Turning to `COc1ccc(C2C(Cl)C(=O)N2c2ccc(O)c3ncccc23)cc1` (stereo not given), the Activity was found to be 91% with Brugia malayi [1]; 91% in the assay on Brugia malayi [2]; 91% with Brugia malayi [3]; 76% in the assay on Brugia malayi [4]; 67% with Brugia malayi [5].
On to `O=C1C(Cl)C(c2ccc(F)cc2)N1c1ccc(O)c2ncccc12` (stereo not given), for which the Activity in the assay on Brugia malayi [1] was found to be 26%; in the assay with Brugia malayi [2] it was 37%; in the assay on Brugia malayi [3] it was 12%. The result in the assay with Brugia malayi [4] and in the assay on Brugia malayi [5] was inactive.
